Series [1] relates to Trypanosoma brucei rhodesiense. Description: Antitrypanosomal activity against blood stream form of Trypanosoma brucei rhodesiense IL-1501 assessed as growth inhibition incubated for 69 hrs by alamar blue staining based microplate fluorescence scanner analysis. It is filed as functional, organism-based. As to conditions: IL-1501, 69 h.
The nature of series [2]: Growth inhibition of human WI-38 cells incubated for 72 hrs by MTT assay. It is filed as toxicity, cell-based.
Series [3] can be described thus: Selectivity ratio of IC50 for cytotoxicity against human WI-38 cells to IC50 for antitrypanosomal activity against Trypanosoma brucei rhodesiense IL-1501. It is filed as toxicity, cell-based.

SMILES strings stand for the structures.

As for `C=CCCC/C=C/C=C/[C@H]1OC(=O)C[C@@H]2O[C@H](C[C@H](O)C[C@H](C)C[C@@H](O)C1(C)C)C[C@H](O[C@@H]1OC[C@@H](OC)[C@H](OC)[C@H]1O)C2(C)C`, the IC50 in series [1] worked out at 11 µM. For the same compound, in series [2], the IC50 at 72 h stood at 55 µM. The selectivity ratio in series [3] was determined as 5.

`C=CCCC/C=C/C=C/[C@H]1OC(=O)C[C@@H]2O[C@H](C[C@H](O)C[C@H](C)C[C@@H](O)C1(C)C)C[C@H](O[C@@H]1OC[C@@H](OC)[C@H](O)[C@H]1O)C2(C)C`: the half-maximal inhibitory concentration (IC50) in series [1] was 12 µM. Besides, the IC50 at 72 h in series [2] was above 150 µM. In addition, the selectivity ratio in series [3] was above 15.

Take `CCCCC/C=C/C=C/[C@H]1OC(=O)C[C@@H]2O[C@H](C[C@H](O)C[C@H](C)C[C@@H](O)C1(C)C)C[C@H](O[C@@H]1OC[C@@H](OC)[C@H](O)[C@H]1O)C2(C)C`: the IC50 in series [1] stood at 14 µM. The compound also yielded a 50% inhibitory concentration (IC50) at 72 h in series [2] of 49 µM.

For `C#CCCC/C=C/C=C/[C@H]1OC(=O)C[C@@H]2O[C@H](C[C@H](O)C[C@H](C)C[C@@H](O)C1(C)C)C[C@H](O[C@@H]1OC[C@@H](OC)[C@H](OC)[C@H]1O)C2(C)C`, the IC50 in series [1] came to 11 µM. The IC50 at 72 h in series [2] was above 150 µM. Moreover, the selectivity ratio in series [3] was above 15.

As to `N=C(N)c1ccc(OCCCCCOc2ccc(C(=N)N)cc2)cc1` [PENTAMIDINE], in series [1], the IC50 was 0.006 µM.

These data come from ChEMBL document CHEMBL5370669, “Isolation and Structure Determination of Akunolides, Macrolide Glycosides from a Marine Okeania sp. Cyanobacterium” (J Nat Prod, 2023).
